Experiments:
[1] = target: T1, nitric oxide synthase (Mus musculus, UniProt P29477); test: NOS inhibition assay: nitric oxide (nitrite, Greiss reagent) production from PAM 212 keratinocytes stimulated with gamma interferon; assay type: cell-based; details: 100 U/ml gamma interferon, 72 hours, nitrite in medium
T1 sequence (P29477 1-1144): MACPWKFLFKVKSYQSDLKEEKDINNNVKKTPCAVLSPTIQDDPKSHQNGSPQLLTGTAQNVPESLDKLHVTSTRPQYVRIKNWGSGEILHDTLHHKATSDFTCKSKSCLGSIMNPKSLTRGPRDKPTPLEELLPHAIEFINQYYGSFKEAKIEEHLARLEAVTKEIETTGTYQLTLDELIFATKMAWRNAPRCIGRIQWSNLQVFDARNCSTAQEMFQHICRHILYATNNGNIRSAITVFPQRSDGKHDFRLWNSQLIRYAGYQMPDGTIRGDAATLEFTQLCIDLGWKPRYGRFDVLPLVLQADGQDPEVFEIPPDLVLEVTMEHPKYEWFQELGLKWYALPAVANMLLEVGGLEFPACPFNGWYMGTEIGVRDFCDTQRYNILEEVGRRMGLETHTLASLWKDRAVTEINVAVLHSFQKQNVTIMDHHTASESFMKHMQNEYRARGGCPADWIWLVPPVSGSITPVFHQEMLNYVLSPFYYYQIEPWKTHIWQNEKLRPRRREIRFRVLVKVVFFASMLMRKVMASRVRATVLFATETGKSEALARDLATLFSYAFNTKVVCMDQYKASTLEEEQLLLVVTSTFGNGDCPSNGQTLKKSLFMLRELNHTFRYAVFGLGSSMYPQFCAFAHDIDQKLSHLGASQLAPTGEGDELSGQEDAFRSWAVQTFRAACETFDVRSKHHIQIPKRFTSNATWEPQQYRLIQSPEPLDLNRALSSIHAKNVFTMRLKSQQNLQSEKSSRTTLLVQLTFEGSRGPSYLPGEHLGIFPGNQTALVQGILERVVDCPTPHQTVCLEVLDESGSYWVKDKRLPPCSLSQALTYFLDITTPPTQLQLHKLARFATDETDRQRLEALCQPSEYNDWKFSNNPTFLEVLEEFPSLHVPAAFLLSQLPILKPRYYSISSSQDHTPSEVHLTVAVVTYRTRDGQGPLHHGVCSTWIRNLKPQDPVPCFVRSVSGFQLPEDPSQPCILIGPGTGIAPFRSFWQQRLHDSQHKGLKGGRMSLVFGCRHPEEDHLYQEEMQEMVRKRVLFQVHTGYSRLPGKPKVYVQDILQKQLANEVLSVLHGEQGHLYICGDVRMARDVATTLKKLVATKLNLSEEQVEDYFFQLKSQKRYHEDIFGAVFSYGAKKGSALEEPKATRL

[2] = test system: PAM 212 cells; test: Antiproliferative assay, PAM 212 tumor cells counted with Coulter counter; assay type: cell-based; details: Mus musculus, PAM212, grown 4 to 5 days, read-out: IC50, concentration inhibiting cell growth by 50%
Excerpt: The ability of any one of the compounds according to the present invention to inhibit cell growth is recognized by the scientific community to be directly related to its therapeutic potential as an anticancer agent. This type of growth assay can be used with mammalian cancer cells as well as with pathogenic and non-pathogenic microbes, including, but not limited to, yeasts and bacteria. To assay these compounds for anticancer activity, tumor cells (PAM 212) grown in vitro in monolayer culture flasks were used. […] Triplicate wells on the plates were used to measure control growth and growth of the cells in the presence of each concentration of anticancer agent. The cells were then returned to the incubator. […] The cells from each well on the culture dishes were removed by trypsin treatment and counted with a Coulter counter. After a period of time, the number of cells in each well was determined. The data can be presented as a curve showing the inhibition of tumor cell growth with increasing concentrations of the test compound. […] Each of the compounds according to the present invention was a potent inhibitor of cell growth with the IC50 values being typically in the micromolar concentration range.

Compound	melting point	IC50 [1]	IC50 [2]
CN1C(C=Cc2ccccc2)Sc2nnc(-c3ccco3)n21 (stereo not drawn) [IXd]	128 to 129.5 °C	14 µM	45 µM
COC(=O)CCSc1nnc(C)n1N [VI (R = methyl, R′ = —CH2—CH2—COOMe)]	–	170 µM	–
Oc1cccc(C=Nn2c(S)nnc2-c2cccnc2)c1O [VIIr]	–	29 µM	–
Fc1ccc(-c2nnc3n2N=C(c2ccccc2)CS3)cc1 [VIII (R = 4-F—C6H4—, R′ = phenyl)]	–	> 100 µM	–
Brc1ccccc1-c1nnc2n1N=CC=C(c1ccccc1)S2 [IV (R = 2-Br—C6H4—, R′ = H)]	–	87 µM	–
Fc1ccc(-c2nnc3n2N=C(C(F)(F)F)CS3)cc1	–	30 µM	–
Nn1c(S)nnc1-c1ccc(F)cc1 [III (R = 4-F—C6H4—)]	–	98 µM	–
CSc1nnc(C2CCCCC2)n1N=CC(Br)=Cc1ccccc1 [Compound Xi]	–	146 µM	–
C1=Nn2c(Cc3ccccc3)nnc2SC(c2ccccc2)=C1 [IV (R = benzyl, R′ = H)]	–	52 µM	–
C1=C(c2ccccc2)Sc2nnc(-c3ccccc3)n2NC1 [Va]	222 to 223 °C	110 µM	–
Cc1nnc2n1N=C(C(F)(F)F)CS2 [VIIIc]	85 to 86 °C	> 100 µM	–
Fc1ccc(-c2nnc3n2N=CC=C(c2ccccc2)S3)cc1 [IVb]	217 to 219 °C	21 µM	–
Cc1nnc2n1N(C)C(C=Cc1ccccc1)S2 (stereo not drawn) [IXf]	125 to 126 °C	17 µM	> 100 µM

The next lines start with results.

melting point	IC50 [1]	Compound	IC50 [2]
227 to 228 °C	> 100 µM	COc1ccccc1C=CC=Nn1c(S)nnc1-c1cccs1 [VIIb]	–
196 to 197 °C	–	CC(CCCl)Sc1nnc(-c2cccs2)n1N (stereo not drawn)	–
250 to 252 °C	15 µM	CN1C(C=Cc2ccccc2)Sc2nnc(-c3cccs3)n21 (stereo not drawn) [IXa]	44 µM
206 to 206.5 °C	35 µM	Sc1nnc(-c2cccs2)n1N=CC=Cc1ccccc1 [VIIa, 4-imino-(cinnamyl)-3-mercapto-5-(2-thienyl)-4H-1,2,4-triazole]	–
109.5 to 111 °C	> 100 µM	CC(CC(=O)Oc1ccccc1)Sc1nnc(-c2cccs2)n1N (stereo not drawn) [VIb]	–
–	77 µM	Nn1c(-c2cccs2)n[nH]c1=S [III (R = 2-thienyl), 4-amino-3-mercapto-5-(2-thienyl)-(4H)-1,2,4-triazole]	–
214 to 215 °C	12 µM	O=[N+]([O-])c1ccccc1C=CC=Nn1c(S)nnc1-c1cccs1 [Compound VIIc]	60 µM
164 to 166 °C	48 µM	C1=Nn2c(nnc2-c2cccs2)SC(c2ccccc2)=C1 [IVc]	–

— patent US20020032325A1, “4-amino-3-mercapto-1,2,4-triazoles” (priority 1999, published 2002)
